Experiment: Ability of stabilizing agents to dissolve in the melted PEG/Poloxamer vehicle
Type: physicochemical
Conditions: 0.5% w/w of substance mixed with PEG/Poloxamer at 80° C.

| Compound | Physical state in vehicle | other results |
| --- | --- | --- |
| Oc1cccc2cccnc12 [8-hydroxychinoline 0.005%, ½SO4, ½H2O, 8-hydroxychinoline] | Not dissolved |  |
| N.N.O=C(O)CC(O)(CC(=O)O)C(=O)O [Citric acid, (NH4)2] | Not dissolved |  |
| N.N.N.O=C(O)CC(O)(CC(=O)O)C(=O)O [Citric acid, (NH4)3] | Not dissolved |  |
| O=C(O)CC(O)(CC(=O)O)C(=O)O [Citric acid, H2O] | Dissolved | Physical state in vehicle (listed as citric acid): dissolved |
| O=C([O-])CC(O)(CC(=O)[O-])C(=O)[O-].[Na+].[Na+].[Na+] [Citric acid, Na3] | Not dissolved |  |
| O=C([O-])CC(O)(CC(=O)O)C(=O)O.[Na+] [Citric acid, Na] | Not dissolved |  |
| O=C(O)[C@H]1OC(O)[C@H](O)[C@@H](O)[C@@H]1O (stereo partly drawn) [D-Glucoronic acid] | Not dissolved |  |
| O=C([O-])CN(CCN(CC(=O)[O-])CC(=O)[O-])CC(=O)[O-].[Ca+2].[Na+].[Na+] [EDTA, Ca, Na2] | Not dissolved |  |
| O=C([O-])CN(CCN(CC(=O)[O-])CC(=O)O)CC(=O)[O-].[Na+].[Na+].[Na+] [EDTA, Na3] | Not dissolved |  |
| O.O.O=C([O-])CN(CCN(CC(=O)[O-])CC(=O)[O-])CC(=O)[O-].[Na+].[Na+].[Na+].[Na+] [EDTA, Na4, 2H2O] | Not dissolved |  |
| O=C(O)CN(CCN(CC(=O)O)CC(=O)O)CC(=O)O [Ethylene di-amine tetra acetic acid] | Not dissolved |  |
| O=C(O)C(=O)O [Oxalic acid, 2H2O] | Dissolved | Physical state in vehicle (listed as oxalic acid): dissolved |
| O=C([O-])C(=O)[O-].[Ca+2] [Oxalic acid, Ca, xH2O] | Not dissolved |  |
| N.N.O=C(O)C(O)C(O)C(=O)O (stereo not shown) [Tartaric acid, (NH4)2] | Not dissolved |  |
| O.O=C([O-])C(O)C(O)C(=O)[O-].O=C([O-])C(O)C(O)C(=O)[O-].[K+].[K+].[K+].[K+] (stereo not shown) [Tartaric acid, K2, ½H2O] | Not dissolved |  |
| O=C([O-])C(O)C(O)C(=O)O.[K+] (stereo not shown) [Tartaric acid, K] | Not dissolved |  |
| O=C(O)C(O)C(O)C(=O)O (stereo not shown) [Tartaric acid] | Dissolved | Physical state in vehicle (listed as tartaric acid): dissolved |
| O.O=C([O-])CN(CCN(CC(=O)[O-])CC(=O)[O-])CCN(CC(=O)[O-])CC(=O)[O-].[Ca+2].[Na+].[Na+].[Na+] [Triethyleneamine pentaacetic acid, Ca, Na3, H2O] | Not dissolved |  |
| EDTA, NH4, H2O | Not dissolved |  |
